{"source": "paper PMC11787452", "about": "“Substrate and inhibitor specificity of Plasmodium nucleoside transporters ENT1 orthologs” (The Journal of Biological Chemistry, 2024)", "key": {"[1]": {"molecular_target": "T1, PfENT1 (Plasmodium falciparum, UniProt Q8IDM6)", "T1 construct": "10xHis (N); made in house; host or cells: Sf9 insect cells (baculovirus)", "assay": "ITC binding to PfENT1", "conditions": "for Kd: 25 °C, 25 mM MES pH 6.0, 150 mM NaCl, 0.05% DDM", "method": "(§1) All the constructs were subcloned and inserted into a modified pFastBac with an N-terminal 10 × His tag. The baculovirus was generated in DH10Bac for recombinant protein expression. After 72 h of infection, Sf9 insect cells were harvested. For structural determination of the PfENT1 protein, Sf9 cells were solubilized in buffer containing 25 mM MES (pH 6.0), 150 mM NaCl, 2% (w/v) n-dodecyl-β-D-maltopyranoside (DDM), and protease inhibitor cocktail (0.8 μM aprotinin, 2 μM pepstatin, and 5 μg/ml leupeptin) at 4 °C for 2 h. After centrifugation at 18,000 rpm for 45 min at 4 °C, the detergent-soluble supernatant was collected via centrifugation at 4 °C for 60 min and incubated with Ni-NTA resin (QIAGEN) at 4 °C for 20 min. The resin was further washed with 25 mM MES pH 6.0, 150 mM NaCl, 10 mM imidazole, and 0.05% (w/v) DDM and eluted with buffer containing 25 mM MES pH 6.0, 150 mM NaCl, 300 mM imidazole, and 0.05% (w/v) DDM. The protein was further purified via size-exclusion chromatography (Superdex 200 Increase 10/300; GE Healthcare) in buffer containing 25 mM MES (pH 6.0), 150 mM NaCl, and 0.05% (w/v) DDM. The peak fractions were pooled and concentrated to 10∼50 μM for the nucleoside-binding assay. The protein purification of the bacterial nucleoside transporter NupG was performed as described in previous studies ([35]).\n(§2) […] binding to ENTs was measured at 25 °C via a MicroCal PEAQ-ITC. The purified ENT protein was concentrated to 25 to 50 μM for ITC experiments. The nucleoside was diluted to 5 mM via the same buffer employed for protein purification, which consisted of 25 mM MES (pH 6.0), 150 mM NaCl, and 0.05% DDM. The inhibitor was diluted to 250 μM via the same buffer employed for protein purification, which consisted of 25 mM MES (pH 6.0), 150 mM NaCl, and 0.05% DDM. All the titrations were repeated three times."}, "[2]": {"molecular_target": "T2, PvENT1 (Plasmodium vivax, UniProt A5K8B0)", "T2 construct": "10xHis (N); made in house; host or cells: Sf9 insect cells (baculovirus)", "T2 sequence (A5K8B0 1-416)": "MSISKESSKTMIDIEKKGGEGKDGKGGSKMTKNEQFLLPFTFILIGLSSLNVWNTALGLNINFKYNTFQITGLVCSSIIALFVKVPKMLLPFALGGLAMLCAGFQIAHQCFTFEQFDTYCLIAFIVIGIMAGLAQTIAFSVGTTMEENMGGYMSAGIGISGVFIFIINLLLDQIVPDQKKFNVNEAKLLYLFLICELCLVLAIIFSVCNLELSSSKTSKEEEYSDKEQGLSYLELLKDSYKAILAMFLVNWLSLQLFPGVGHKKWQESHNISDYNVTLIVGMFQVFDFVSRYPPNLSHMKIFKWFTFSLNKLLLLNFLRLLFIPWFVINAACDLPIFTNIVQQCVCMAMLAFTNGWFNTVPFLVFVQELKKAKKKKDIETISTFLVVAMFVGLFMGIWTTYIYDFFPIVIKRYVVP", "assay": "ITC binding to PvENT1", "conditions": "for Kd: 25 °C, 25 mM MES pH 6.0, 150 mM NaCl, 0.05% DDM", "method": "as §1, §2"}, "[3]": {"molecular_target": "T3, PbENT1 (Plasmodium berghei, UniProt A0A509AYF4)", "T3 construct": "10xHis (N); made in house; host or cells: Sf9 insect cells (baculovirus)", "T3 sequence (A0A509AYF4 1-412)": "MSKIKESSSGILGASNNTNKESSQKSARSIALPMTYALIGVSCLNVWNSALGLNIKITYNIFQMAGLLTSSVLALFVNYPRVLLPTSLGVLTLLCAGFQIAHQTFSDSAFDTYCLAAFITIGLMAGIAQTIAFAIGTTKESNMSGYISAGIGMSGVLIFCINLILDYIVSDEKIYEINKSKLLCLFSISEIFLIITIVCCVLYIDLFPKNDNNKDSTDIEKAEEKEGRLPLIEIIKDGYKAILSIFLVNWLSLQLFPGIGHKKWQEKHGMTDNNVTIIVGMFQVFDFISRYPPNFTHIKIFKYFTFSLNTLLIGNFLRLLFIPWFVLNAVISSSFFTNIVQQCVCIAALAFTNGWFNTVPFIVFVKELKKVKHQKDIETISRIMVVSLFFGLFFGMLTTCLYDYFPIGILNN", "assay": "ITC binding to PbENT1", "conditions": "for Kd: 25 °C, 25 mM MES pH 6.0, 150 mM NaCl, 0.05% DDM", "method": "as §1, §2"}, "[4]": {"molecular_target": "T4, PfENT1I70M (Plasmodium falciparum, UniProt Q8IDM6, I70M)", "T4 construct": "10xHis (N); made in house; host or cells: Sf9 insect cells (baculovirus)", "T4 sequence (Q8IDM6 1-422 I70M)": "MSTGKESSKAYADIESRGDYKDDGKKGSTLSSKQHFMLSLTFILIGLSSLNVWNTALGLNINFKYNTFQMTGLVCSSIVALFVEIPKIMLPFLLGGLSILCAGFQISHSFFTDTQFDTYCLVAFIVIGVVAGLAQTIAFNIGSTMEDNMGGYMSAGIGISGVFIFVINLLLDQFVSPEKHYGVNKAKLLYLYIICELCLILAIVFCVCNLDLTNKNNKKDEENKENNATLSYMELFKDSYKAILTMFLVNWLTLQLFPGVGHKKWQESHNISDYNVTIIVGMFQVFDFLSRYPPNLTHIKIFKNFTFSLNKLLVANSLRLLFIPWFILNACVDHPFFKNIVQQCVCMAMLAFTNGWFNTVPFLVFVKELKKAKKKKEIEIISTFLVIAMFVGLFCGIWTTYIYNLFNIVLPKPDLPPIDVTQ", "assay": "ITC binding to PfENT1I70M", "method": "as §1, with “The protein purification of the bacterial nucleoside transporter NupG was performed as described in previous studies ([35]).” left out\n(§3) […] binding to ENTs was measured at 25 °C via a MicroCal PEAQ-ITC. […]"}, "[5]": {"molecular_target": "T5, PfENT1S49C (Plasmodium falciparum, UniProt Q8IDM6, S49C)", "T5 construct": "10xHis (N); made in house; host or cells: Sf9 insect cells (baculovirus)", "T5 sequence (Q8IDM6 whole entry S49C)": "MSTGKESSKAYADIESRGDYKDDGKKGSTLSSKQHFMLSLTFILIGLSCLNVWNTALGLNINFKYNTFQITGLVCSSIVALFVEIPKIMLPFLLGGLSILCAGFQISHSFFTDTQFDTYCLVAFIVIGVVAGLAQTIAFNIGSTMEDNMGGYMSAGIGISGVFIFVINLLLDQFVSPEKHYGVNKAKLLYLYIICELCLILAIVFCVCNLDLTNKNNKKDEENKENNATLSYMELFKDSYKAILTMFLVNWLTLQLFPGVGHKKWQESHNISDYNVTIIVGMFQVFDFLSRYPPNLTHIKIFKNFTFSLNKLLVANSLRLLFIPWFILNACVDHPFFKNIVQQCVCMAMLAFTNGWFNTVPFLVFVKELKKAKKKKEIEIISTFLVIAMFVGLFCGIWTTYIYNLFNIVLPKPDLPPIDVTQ", "assay": "ITC binding to PfENT1S49C", "method": "as §1, with “The protein purification of the bacterial nucleoside transporter NupG was performed as described in previous studies ([35]).” left out\nas §3"}, "[6]": {"molecular_target": "T6, PbENT1M64I (Plasmodium berghei, UniProt A0A509AYF4, M64I)", "T6 construct": "10xHis (N); made in house; host or cells: Sf9 insect cells (baculovirus)", "T6 sequence (A0A509AYF4 whole entry M64I)": "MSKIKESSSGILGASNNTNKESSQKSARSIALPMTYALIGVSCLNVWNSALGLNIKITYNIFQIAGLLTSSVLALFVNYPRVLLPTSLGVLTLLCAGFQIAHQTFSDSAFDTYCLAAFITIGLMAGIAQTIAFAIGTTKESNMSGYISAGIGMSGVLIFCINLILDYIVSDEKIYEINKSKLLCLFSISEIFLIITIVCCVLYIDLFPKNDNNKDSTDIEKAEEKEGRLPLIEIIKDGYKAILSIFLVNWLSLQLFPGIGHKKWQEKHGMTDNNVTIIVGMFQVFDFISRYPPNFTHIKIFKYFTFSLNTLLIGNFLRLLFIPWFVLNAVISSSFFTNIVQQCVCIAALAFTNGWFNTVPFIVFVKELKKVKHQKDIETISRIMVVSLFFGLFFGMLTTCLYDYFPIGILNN", "assay": "ITC binding to PbENT1M64I", "method": "as §1, with “The protein purification of the bacterial nucleoside transporter NupG was performed as described in previous studies ([35]).” left out\nas §3"}, "[7]": {"molecular_target": "T7, PbENT1C43S (Plasmodium berghei, UniProt A0A509AYF4, C43S)", "T7 construct": "10xHis (N); made in house; host or cells: Sf9 insect cells (baculovirus)", "T7 sequence (A0A509AYF4 whole entry C43S)": "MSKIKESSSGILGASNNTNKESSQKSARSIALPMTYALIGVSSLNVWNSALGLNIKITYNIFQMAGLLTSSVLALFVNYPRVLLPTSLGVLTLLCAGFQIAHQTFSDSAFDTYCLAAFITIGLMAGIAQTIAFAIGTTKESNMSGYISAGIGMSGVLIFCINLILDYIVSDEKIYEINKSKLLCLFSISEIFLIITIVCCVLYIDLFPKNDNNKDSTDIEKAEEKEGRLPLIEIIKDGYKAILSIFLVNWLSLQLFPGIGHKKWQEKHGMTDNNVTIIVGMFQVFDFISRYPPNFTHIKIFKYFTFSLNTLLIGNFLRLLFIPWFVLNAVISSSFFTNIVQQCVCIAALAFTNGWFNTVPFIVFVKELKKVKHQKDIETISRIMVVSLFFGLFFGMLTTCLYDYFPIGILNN", "assay": "ITC binding to PbENT1C43S", "method": "as §1, §2"}, "[8]": {"molecular_target": "T1, PfENT1", "design": "method as in PMID 36977719", "conditions": "competition assay; cited from earlier work"}, "[9]": {"conditions": "read-out: Kd (binding affinity for PvENT1)"}, "[10]": {"conditions": "read-out: Kd (binding affinity for PbENT1)"}, "[11]": {"conditions": "read-out: Kd (binding affinity for PfENT1)"}}, "note": "“And” between values parts separate entries of the source, which are not always exact repeats. Equal values may be shown once. Read-outs that look alike come from different tables or passages of the source."}
{"compound": "Nc1nc2c(ncn2[C@@H]2O[C@H](CO)[C@@H](O)[C@H]2O)c(=O)[nH]1", "note": "[guanosine]", "values": [{"measurement": "Kd", "setting": "[1]; Kd (binding affinity for PfENT1)", "result": "~179", "unit": "µM"}, {"measurement": "Kd", "setting": "[2]; [9]", "result": "~49.3 µM and 49.3 µM and 50.5 µM and 46.3 µM"}, {"measurement": "Kd", "setting": "[3]; [10]", "result": "15.6 µM and 8.69 µM and 11.3 µM"}]}
{"compound": "O=c1[nH]cnc2c1ncn2[C@@H]1O[C@H](CO)[C@@H](O)[C@H]1O", "note": "[inosine]", "values": [{"measurement": "thermodynamic pattern of binding to PfENT1", "setting": "[1]", "result": "entropy-driven"}, {"measurement": "Kd", "setting": "[1]; [11]", "result": 77.3, "unit": "µM"}, {"measurement": "ΔH of binding to PfENT1", "setting": "[1]; endothermic reaction", "result": "> 0"}, {"measurement": "thermodynamic pattern of binding to PvENT1", "setting": "[2]", "result": "enthalpy-entropy compensation"}, {"measurement": "ΔH of binding to PvENT1", "setting": "[2]; exothermic reaction", "result": "< 0"}, {"measurement": "thermodynamic pattern of binding to PbENT1", "setting": "[3]", "result": "enthalpy-driven"}, {"measurement": "ΔH of binding to PbENT1", "setting": "[3]; exothermic reaction", "result": "< 0"}, {"measurement": "affinity for PfENT1I70M (in words)", "setting": "[4]; compared with PfENT1", "result": "comparable affinity"}, {"measurement": "binding to PfENT1S49C (in words)", "setting": "[5]", "result": "complete abolishment"}, {"measurement": "binding affinity of PbENT1M64I relative to WT PbENT1", "setting": "[6]", "result": "fivefold lower"}, {"measurement": "binding affinity of PbENT1C43S relative to WT PbENT1", "setting": "[7]", "result": "fivefold lower"}]}
{"compound": "OC[C@H]1O[C@@H](n2cnc3c(O)ncnc32)[C@H](O)[C@@H]1O", "note": "[inosine]", "values": [{"measurement": "Kd", "setting": "[1]; [11]", "result": "~64.2", "unit": "µM"}, {"measurement": "Kd", "setting": "[2]; [9]", "result": "~146 µM and 146 µM and 161 µM and 173 µM"}, {"measurement": "Kd", "setting": "[3]; [10]", "result": "13.6 µM and 6.11 µM and 13.5 µM"}, {"measurement": "Kd", "setting": "[4]; 25 °C, pH 6.0", "result": "58.3 µM and 78.5 µM and 65.3 µM"}, {"measurement": "Kd", "setting": "[6]; Kd (binding to PbENT1M64I), 25 °C, pH 6.0", "result": "61.6 µM and 53.5 µM and 58.9 µM"}, {"measurement": "Kd", "setting": "[7]; Kd (binding to PbENT1C43S), 25 °C, pH 6.0", "result": "51.4 µM and 55.9 µM and 58.4 µM"}]}
{"compound": "Cc1cn([C@H]2C[C@H](O)[C@@H](CO)O2)c(=O)[nH]c1=O", "note": "[thymidine]", "values": [{"measurement": "binding affinity for PfENT1 (in words)", "setting": "[1]; PfENT1 WT", "result": "undetectable"}, {"measurement": "binding affinity for PbENT1 (in words)", "setting": "[3]", "result": "weak"}, {"measurement": "inhibition of the inosine transport activity of PfENT1", "setting": "[8]", "result": "effectively inhibited"}]}
{"compound": "O=c1ccn([C@@H]2O[C@H](CO)[C@@H](O)[C@H]2O)c(=O)[nH]1", "note": "[uridine]", "values": [{"measurement": "binding affinity for PbENT1 (in words)", "setting": "[3]", "result": "No binding affinity was detected"}]}
{"compound": "O=c1[nH]c(=O)c2ncn([C@@H]3O[C@H](CO)[C@@H](O)[C@H]3O)c2[nH]1", "note": "[xanthosine]", "values": [{"measurement": "Kd", "setting": "[2]; Kd (binding affinity for PvENT1)", "result": "114 µM and 122 µM and 107 µM"}, {"measurement": "Kd", "setting": "[3]; Kd (binding affinity for PbENT1)", "result": "88.2 µM and 92.8 µM and 95.5 µM"}]}
